# Assay results as given in US7696408B2, “Method to enhance Agrobacterium-mediated transformation of plants” (Regents of the University of Minnesota, priority 1999, dated 2010).
# Key:
# [1] = test system: soybean cot-node explants; assay: De novo shoot production on explants at four weeks on shoot induction media; format: cell-based, Glycine max; details: for explants producing de novo shoots at four weeks: Experiment #1, Bert; for de novo shoot growth: Experiment #2, MN1301; for explants developing de novo shoots: Experiment #3, MN0901
# Source text: The explants were removed from the chamber after 14 days and transferred to fresh shoot induction media containing herbicide selection. During the transfer, the hypocotyl was carefully removed from the developing shoot mass and imbedded into the media with the differentiating tissue flush with the media surface. The plates were placed back into the growth chamber for an additional 2 weeks. At the 4 week time point, explants without de novo shoot production were discarded. The cotyledons were then removed from the differentiating tissue by cutting at the base of the node and the callus trimmed before transferring into shoot elongation media containing MS salts (murashige and Skoog, 1962), MSIII iron stock, 3% sucrose, 3 mM MES, 0.8% agar, and filter sterilized B5 vitamins, 50 mg/l asparagine, 100 mg/l pyroglutamic acid, 1 mg/l zeatin riboside, 0.1 mg/l indole-acetic acid, 0.5 mg/l GA3, 100 mg/l cefotaxime, 500 mg/l ticarcillin, 1.3-5 mg/l PPT; pH 5.6). Also at this time, a percentage of the explants were sliced into about 10 sections and stained for both GUS positive sectors and GUS positive shoots. Every 2 weeks the explants were transferred into new shoot elongation media after removing dead plant tissue and the bottom of the explant cut to encourage shoot elongation of transformed shoots.
# Five levels of cysteine were tested: 0 mg/l, 100 mg/l, 200 mg/l, 300 mg/l, and 400 mg/l. Cysteine was incorporated into the solid co-culture media by preparing the media as described hereinabove and dissolving the L-cysteine into the filter sterilized components. For these three experiments, no cysteine was added into the liquid co-cultivation media. To reduce experimental error, explants were placed randomly on all five different treatments and all plates within a treatment were shuffled after completion of the experiment. After co-cultivation, the explants in each treatment were placed on shoot induction media with ½ the concentration of cysteine as in the co-cultivation media. The specific details for each experiment are as follows: • 1. Experiment #1 used the Minnesota genotype Bert and Agrobacterium strain AGL1 containing the BSF16 binary plasmid. A total of 276 explants were wounded and infected with Agrobacterium. After co-cultivation, 10 explants of each treatment were immersed into GUS stain and assayed for transient expression and the remaining explants were washed and transferred to shoot induction media containing 1.33 mg/l PPT for all four weeks. De novo shoots were produced on 74% of the treatments containing 0 mg/l cysteine, 57% on 100 mg/l, 63% on 200 mg/l, 70% on 300 mg/l, and 77% on 400 mg/l at four weeks. […] Experiment #2 used the Minnesota genotype MN1301 and Agrobacterium strain AGL1 containing the BSF16 binary plasmid. A total of 229 explants were dissected, cut, and inoculated. For each cysteine-treatment, half of the explants were incubated during co-cultivation at 21-22° C. and the other half at 25° C. Five explants of each cysteine/temperature treatment were sacrificed to GUS stain and the remaining transferred to fresh shoot induction media containing 1.33 mg/l PPT for 2 weeks. The herbicide level was raised to 3.33 mg/l PPT for the second 2 weeks on shoot induction media. Because of poor de novo shoot growth (35% on 0 mg/l cysteine, 22.8% on 100 mg/l, 32% on 200 mg/l, 42% on 300 mg/l, and 28% on 400 mg/l) and contamination, all explants were sacrificed to GUS stain at the 4 week time point. • 3. Experiment #3 used the Minnesota genotype MN0901 and Agrobacterium strain AGL1 containing the BSF16 binary plasmid. Seedlings were germinated as usual, however, one half of the plates were placed at 4° C. for 24 hours before inoculation. A total of 390 explants were wounded and inoculated. For each cysteine/seedling-temperature treatment, one half of the explants were incubated during co-cultivation at 21-22° C. and the other half at 25° C. […]
# [2] = test system: soybean; assay: Production of transgenic soybean plants; design: species or system Glycine max; details: cysteine 400-1000 mg/l
# [3] = test system: Japonica rice meristem cultures; details: individually or in combination; Enríguez-Obregón et al., 1999; cited from earlier work
structure (smiles),measurement,setting,value
N[C@@H](CS)C(=O)O [L-cysteine],explants producing de novo shoots at four weeks,"[1]; 100 mg/l cysteine, control 74%",57%
same,explants producing de novo shoots at four weeks,[1]; 200 mg/l cysteine,63%
same,explants producing de novo shoots at four weeks,[1]; 300 mg/l cysteine,70%
same,explants producing de novo shoots at four weeks,[1]; 400 mg/l cysteine,77%
same,de novo shoot growth,"[1]; 100 mg/l cysteine, control 35%",22.8%
same,de novo shoot growth,[1]; 200 mg/l cysteine,32%
same,de novo shoot growth,[1]; 300 mg/l cysteine,42%
same,de novo shoot growth,[1]; 400 mg/l cysteine,28%
same,explants developing de novo shoots,"[1]; 100 mg/l cysteine, control 64%",53%
same,explants developing de novo shoots,[1]; 200 mg/l cysteine,54%
same,explants developing de novo shoots,[1]; 300 mg/l cysteine,53%
same,explants developing de novo shoots,[1]; 400 mg/l cysteine,61%
same,increase in production of transgenic plants,[2],2 fold
same,damage and viability of Japonica rice meristem cultures,[3],decreased damage and increased viability
